Data from patent US9682978B2, “2,6,7 substituted purines as HDM2 inhibitors” (Merck Sharp & Dohme Corp., priority 2013, dated 2017).

Target: T1, HDM2 (Homo sapiens, UniProt Q00987)
T1 construct: Thioredoxin (N); made in house; host or cells: E. coli BL21(DE3)Rosetta (pET32a)
Test: HDM2 FRET assay (inhibition of p53 peptide binding to HDM2)
Settings: truncated HDM2 residues 17 to 125, 0.5 nM HDM2, 3 nM FITC labeled 8-mer peptide, two hour incubation
Description: Methods: An HDM2 FRET assay was developed to assess the compounds' inhibitory activity towards binding of p53 protein. A truncated version of HDM2 with residues 17 to 125 (containing p53 binding surface, Science (1994) 265, 346-355), with N-terminal His and Thioredoxin tag was generated in pET32a expression vector and expressed in E. coli strain BL21(DE3)Rosetta. Protein was purified using Ni-affinity chromatography, followed by size exclusion chromatography using Superdex 75 26/60 column. To assess inhibition of p53 binding to HDM2, a FITC labeled 8-mer peptide (sequence: Ac-Phe-Arg-Dpr-Ac6c-(6-Br)Trp-Glu-Glu-Leu-NH2; Anal Biochem. 2004 Aug. 1; 331(1):138-46) with strong affinity towards p53 binding pocket of HDM2 was used. The HDM2 assay buffer contained 1× Phosphate Buffered Saline (Invitrogen, Cat#14190), 0.01% BSA (Jackson ImmunoResearch, Cat#001-000-162), 0.01% Tween-20. In the 1× assay buffer recombinant HDM2 protein, peptide and Lumi4-Tb Cryptate-conjugate mouse anti-6×HIS antibody (cisbio, Cat#Tb61HISTLB) were added and transferred to ProxiPlate PLUS (PerkinElmer, Cat#6008269), containing compounds so that final DMSO concentration is 0.1%. Final concentrations of reagents in the assay wells are 0.5 nM HDM2, 0.25 nM anti HIS (Tb label) antibody and 3 nM peptide. After two hour incubation at room temperature in a humidified chamber plates were read on EnVision plate reader with the following settings: excitation: UV, […], two emission filters: 520 nm and 495 nm respectively. Ratio of em520/em495 was used to calculate % inhibition and to obtain IC50 with 4-parameter logistic equation.
IC50 DETERMINATIONS: Dose-response curves were plotted from the inhibition data, from 10 point serial dilutions of inhibitory compounds. Concentration of compound was plotted against em520/Cem495 ratio signal. To generate IC50 values, the dose-response curves were fitted to a standard sigmoidal curve and IC50 values were derived by nonlinear regression analysis. IC50 values in the above table are rounded to the nearest integer.

T1 sequence (Q00987 17-125): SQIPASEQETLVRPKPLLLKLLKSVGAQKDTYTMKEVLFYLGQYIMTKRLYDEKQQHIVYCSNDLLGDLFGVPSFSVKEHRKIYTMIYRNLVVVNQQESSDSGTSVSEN

C[C@H]1CC[C@H](Cn2cnc3nc(-c4noc(=O)[nH]4)nc(-c4cccc(Cl)c4)c32)CC1 [Example 2.1, 3-{6-(3-chlorophenyl)-7-[(trans-4-methylcyclohexyl)methyl]-7H-purin-2-yl}-1,2,4-oxadiazol-5(4H)-one] gave an IC50 (Table 2) of 53.4 nM.

With CC1CCC(Cn2cnc3nc(-c4noc(=O)[nH]4)nc(N[C@H](C)C4CCC4)c32)C1 (mixture of isomers) [Example 3.9, 3-(6-{[(1R)-1-cyclobutylethyl]amino}-7-[(3-methylcyclopentyl)methyl]-7H-purin-2-yl)-1,2,4-oxadiazol-5(4H)-one] the IC50 (Table 3) was 1640 nM.

C[C@H]1CC[C@H](Cn2cnc3nc(-c4noc(=O)[nH]4)nc(-c4cccc(C#N)c4)c32)CC1 [Example 2.9, 3-{7-[(trans-4-methylcyclohexyl)methyl]-2-(5-oxo-4,5-dihydro-1,2,4-oxadiazol-3-yl)-7H-purin-6-yl}benzonitrile] showed an IC50 (Table 2) of 518 nM.
